Measured values as given in article PMC5485575, “Arginine kinase from Haemonchus contortus decreased the proliferation and increased the apoptosis of goat PBMCs in vitro” (Parasites & Vectors, 2017).

Target: T1, rHc-AK (Haemonchus contortus, UniProt K0DG62)
T1 construct: E. coli BL21(DE3), Ni-NTA
Assay: fluorimetric ADP formation assay (Universal Fluorimetric Kinase Assay kit)
Format: biochemical
Settings: room temperature, 30 min; 0-10 ug enzyme; substrates of the kinase reaction solution not named

T1 sequence (K0DG62 entry or part of it): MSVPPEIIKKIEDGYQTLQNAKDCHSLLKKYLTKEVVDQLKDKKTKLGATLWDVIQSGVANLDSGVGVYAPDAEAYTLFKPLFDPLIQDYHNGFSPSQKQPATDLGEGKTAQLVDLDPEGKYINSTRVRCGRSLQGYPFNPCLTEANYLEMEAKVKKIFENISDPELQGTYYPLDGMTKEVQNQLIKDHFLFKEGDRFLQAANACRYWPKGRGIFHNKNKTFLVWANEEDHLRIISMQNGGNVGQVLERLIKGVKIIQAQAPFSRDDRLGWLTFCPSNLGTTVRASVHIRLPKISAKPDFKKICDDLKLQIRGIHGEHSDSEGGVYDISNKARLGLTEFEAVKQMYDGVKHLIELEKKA

SMILES: Nc1ncnc2c1ncn2[C@@H]1O[C@H](COP(=O)(O)OP(=O)(O)O)[C@@H](O)[C@H]1O [ADP]
- fluorimetric ADP formation assay (Universal Fluorimetric Kinase Assay kit): results showed a remarkable augmentation in ADP generation with increased period
